Reference: patent US20060025482A1, “(-)-Hydroxycitric acid for the modulation of angiotensin-converting enzyme” (priority 2004, published 2006)

Assays:
[1] = treated rats; cited from earlier work
[2] = Earlier study of SBP with a KCaHCA salt, not described; assay type: in vivo; details: 120 mg HCA per day
[3] = test system: Sprague-Dawley Rats; assay: Systolic blood pressure by tail plethysmography in Sprague-Dawley rats on special diet (Example 1); assay type: in vivo, rat; details: SD rats
Text: (§1) A know effect of ACE inhibitors is a reduction in elevated systolic blood pressure. To test this, the following protocol was employed: Sprague-Dawley Rats (SD), approximately 8 weeks of age werw obtained. Six groups of eight male SD received the same […] rat chow manufactured to specifications. The special diets derived 30% of calories from fats (one half from lard and one half from corn oil), 50% from carbohydrates, and 20% from proteins. Twenty percent of dietary calories was derived from sucrose and the preponderance of the remaining carbohydrate calories was derived from dextrin. During weekdays (M-F), each group was gavaged twice daily with a solution containing a commercial source of potassium hydroxycitrate (KHCA), a commercial source of potassium-calcium hydroxycitrate (KCaHCA), or a pre-commercial non-salt source of potassium-magnesium hydroxycitrate (KMgHCA, listed as KMgHCA L-Low, M-Intermediate or H-High depending upon the dose). Over the weekends (S-S), a similar quantity of the weekday daily dose was added to twenty grams of food, that is, an amount of food estimated to be close to the daily intake of the animals. At initiation of study and four weeks, and eight weeks later, bloods were drawn from all SD for routine blood chemistries. Body weight (BW) was measured weekly and systolic blood pressure (SBP) was measured every two weeks.
The HCA dosages in the arms varied. The dosage used in the KHCA arm was extrapolated from the recommended 1,500 mg HCA per day for humans consuming a normal diet (i.e., ≧30% calories derived from fats) advocated by a commercial seller of KHCA and claimed to have produced acceptable clinical results. The approximate equivalent for the rat model is 35.4 mg HCA per day, which we increased to 38.4 mg HCA per day for convenience in employing a 48% HCA potassium salt and to remain safely on the high side in practice. For the sake of comparison, a commercial KCaHCA salt (60% HCA) was chosen and delivered at an HCA dosage level of 48 mg per day, which slightly exceeded the lowest dosage of HCA found to be efficacious for inhibition of weight gain in rats in the early pharmaceutical trials (45.4 mg/day) using pure trisodium hydroxycitrate and a very low fat diet. The design thus utilized a realistic diet with rough equivalents of the HCA dosages claimed to be effective in both the human and rat models.
The experimental KMgHCA dosings varied considerably from that of the other two salts. […] As a result, the recalculated HCA doses for the experimental compound were a low dose (KMgHCA L) of 14 mg, an intermediate dose (KMgHCA M) of 28 mg and a high dose (KMgHCA H) of 84 mg per day. The difficulty in calculating the HCA content in this case is not unique inasmuch as there is as of yet no universally accepted method for calculating the HCA content of the various salts. Again, preparations yielded the equivalent of 48 mg HCA per day from KCaHCA and 38.4 mg HCA per day from KHCA.
(§2) Systolic Blood Pressure (SBP): SBP was estimated by tail plethysmography in unanesthetized rats after a brief warming period. Readings were taken approximately one minute apart. To be accepted, SBP measurements had to be virtually stable for a minimum of three consecutive readings.
(§3) Statistical Analyses: Results are presented as mean±SEM. Many statistics were performed by one-way analysis of variance (ANOVA). SBP and BW were examined by two-way analyses of variance (one factor being dietary group and the second factor being time of examination). Where a significant effect of diet was detected by ANOVA (p<0.05), the Dunnett t test was used to establish which differences between means reached statistical significance (p<0.05). If a Student's t test was employed, this is noted.

[4] = Blood chemistries in Sprague-Dawley rats (Example 1); assay type: in vivo, rat; details: SD rats; for average insulin concentrations compared to control: differences not significant using ANOVA, all dose groups
Text: as §1, §3

[5] = test system: Spontaneously hypertensive rats (SHR); assay: Systolic blood pressure of SHR on chow/table sugar diet (Example 2); assay type: in vivo, rat; details: 100 mg HCA per day in food, control SBP steadily increased
Method: as §2
(§4) Spontaneously hypertensive rats (SHR) were placed on a diet composed of regular rat chow (60% w/w) and table sugar (40% w/w). This diet reliably elevates blood pressure in this animal model. One group received 100 mg HCA per day in the form of a new potassium-magnesium hydroxycitrate (different from that used in Example 1) via an added 5 g HCA per kg of food mix. Systolic blood pressure and body weight were tested as in Example 1 on a weekly basis.

[6] = test system: Spontaneously hypertensive rats (SHR); assay: Glucose tolerance test with 0.1 unit regular insulin injected along with glucose in SHR; assay type: in vivo, rat; details: 100 mg HCA per day, at 7.5 minutes
Method: as §4
This was viewed as likely positive in that rats gain weight steadily as long as they remain in good health and the SHR at middle age, as used here, lives a relatively short life and its health deteriorates as its blood pressure rises. […] A glucose tolerance test was administered in which 0.1 unit of regular insulin was injected along with glucose. […] This finding indicates increased insulin sensitivity. (FIG. 6)

[7] = Body weight of SHR on chow/table sugar diet (Example 2); assay type: in vivo, rat; details: 100 mg HCA per day in food, p=0.084
Method: as §4

[8] = test system: Spontaneously hypertensive rats (SHR); assay: Losartan challenge: SBP response in SHR; assay type: in vivo, rat
Text: Many factors can positively influence blood pressure, e.g., diuretics, antioxidants, regulators of sympathetic/parasympathetic tone, compounds that improve insulin sensitivity and so forth. Therefore, losartan, an angiotensin-2 receptor blocker, was utilized to discover whether the ACE system was involved in the results discussed in Example 1.
as §4
When losartan was injected, the SBP of both groups decreased. At 6 hours, the SBP were essentially the same. […] Thus, HCA appears to decrease angiotensin-2 in rats and to lower elevated SBP. Although insulin regulation likely is a factor in the blood pressure modulating effect of HCA, this evidence argues that inhibition of ACE is also important. […]

[9] = twice a day; diet consisting of 70% glucose and 1% fat; cited from earlier work
[10] = gavaged twice daily, KHCA 38.4 mg HCA per day, KCaHCA 48 mg HCA per day
[11] = high dose (KMgHCA H) 84 mg HCA per day
[12] = intermediate dose (KMgHCA M) 28 mg HCA per day

Question: For O=C(O)CC(O)(C(=O)O)C(O)C(=O)O (single isomer, unassigned; (-)) [(−)-hydroxycitrate, (−)-Hydroxycitric acid], which “plasma levels of glucose, insulin, or free fatty acids relative to controls” value [1] is on record?
Answer: no significant differences

Question: Which results are given for O=C([O-])CC(O)(C(=O)[O-])C(O)C(=O)[O-].[Ca+2].[K+] (centres unmarked) [KCaHCA, potassium-calcium hydroxycitrate]?
Answer: SBP in earlier study [2]: decrease in SBP; SBP compared to control at the end of eight weeks [3, 10]: significant decreases; average insulin concentrations compared to control [4]: did not show a trend toward lower circulating insulin

Question: For O=C([O-])CC(O)(C(=O)[O-])C(O)C(=O)[O-].[K+].[K+].[K+] (centres unmarked) [KHCA, potassium hydroxycitrate], which “SBP compared to control at the end of eight weeks” value [3, 10] is on record?
Answer: significant decreases

Question: And the “insulin, control versus treatment, Student's t test” value ([4]; KHCA 38.4 mg HCA per day)?
Answer: showed significance

Question: What about the “average insulin concentrations compared to control” value [4] of the same compound?
Answer: lower

Question: What does the source list for O=C([O-])CC(O)(C(=O)[O-])C(O)C(=O)[O-].[K+].[Mg+2] (centres unmarked) [KMgHCA, potassium-magnesium hydroxycitrate]?
Answer: SBP from baseline [5]: decrease in SBP from baseline; SBP compared to control at the end of eight weeks [3, 11]: significant decreases; lowering of SBP at the end of 8 weeks [3, 11]: over 10 mm Hg; SBP compared to control at the end of eight weeks [3, 12]: significant decreases; lowering of SBP at the end of 8 weeks [3, 12]: over 10 mm Hg; SBP at the end of 8 weeks ([3]; low dose (KMgHCA L) 14 mg HCA per day): essentially did nothing; glucose appearance in bloodstream in glucose tolerance test [6]: significantly lesser rise; body weight over three weeks [7]: trend for an increase; insulin, control versus treatment, Student's t test ([4]; KMgHCA H 84 mg HCA per day, p=0.058): at the margin of significance; average insulin concentrations compared to control [4]: lower; decrease in SBP after losartan injection ([8]; 100 mg HCA per day, at 6 hours, versus control): −21.7±7.0

Question: Which “SBP after losartan injection” value ([8]; both groups (control and KMgHCA)) does the source give for CCCCc1nc(Cl)c(CO)n1Cc1ccc(-c2ccccc2-c2nn[nH]n2)cc1 [losartan, reference compound] here?
Answer: decreased

Question: With O=C([O-])CC(O)(C(=O)[O-])C(O)C(=O)[O-].[Na+].[Na+].[Na+] (centres unmarked) [trisodium hydroxycitrate] as the compound, how does the “lowest dose in rats shown to be efficacious in reducing weight gain” value [9] read?
Answer: 0.33 mmol/kg
